Measurements from patent US12698279B2, “Polymorphs of a hydrochloride salt of PN6047” (Pharmnovo AB, priority 2020, dated 2026).
“And” between values parts separate entries of the source, which are not always exact repeats. Equal entries are not always repeated. “Also recorded” adds a separate entry of the source. Where two headings read alike, the source gives them in different places.

Experiments:
[1] = Solid-state stability study (XRPD, TGA, LCMS); assay type: physicochemical; conditions: for LCMS API / TGA mass loss / XRPD: solid state
Method: The solid-state stability of Form HCl2 was determined by incubating samples of approximately 18 mg at different conditions (temperature and relative humidity). After 1 week and 4 weeks, the samples were analyzed by XRPD to determine the polymorphic form, by TGA to determine the mass loss upon heating and by LCMS to determine the API purity. The experimental details and results are described in Table 6.

[2] = Solution stability study in saline (LCMS); assay type: physicochemical
Method: Experiments were performed in saline (0.9% NaCl in water). Two stock solutions of Form HCl2 in saline were prepared, one with a concentration of 10 mg/mL and one with a concentration of 100 mg/mL. The 10 mg/mL stock solution was prepared by dissolving 56 mg of material in 5 mL of saline. The 100 mg/mL stock solution was prepared by dissolving 196.2 mg of material in 1.75 mL saline. For each experiment involving 10 mg/mL, 0.5 mL of stock solution was transferred to an HPLC vial whereas for each experiment involving 100 mg/mL, 0.15 mL of stock solution was transferred to an HPLC vial. The HPLC vials were closed with a screw cap and placed in a Crystal16™ apparatus and incubated at different temperatures.
After the incubation time, the samples were diluted with acetonitrile/water 1:1 (v/v) and measured by LCMS to determine the API peak area.

[3] = Bioavailability study in rats; assay type: in vivo; conditions: male, Wistar, blood, rat, single dose, vs 1 mg/kg intravenous, read-out: Bioavailability (Fabs)
Method: Male Wistar rats were used. Six groups of four animals each were used. Two groups were administered a single intravenous dose of 1 mg/kg of the free base or the HCl2 salt, one group was administered a single oral dose of 3 mg/kg of the free base, and three groups were administered a single oral dose of 3, 10 or 50 mg/kg of the HCl2 salt. Blood samples were collected after 0.25, 0.5, 1, 2, 4, 6, 8 and 24 hours following intravenous administration, and after 0.083, 0.25, 0.5, 1, 2, 4, 6, 8 and 24 hours following oral administration. The samples were analyzed using an LC/MS/MS system. The bioavailability (Fabs) is shown in Table 7 and was calculated as follows: […]

[4] = Dynamic vapour sorption (DVS) hygroscopicity; assay type: physicochemical; conditions: for hygroscopicity (classification as per the European Pharmacopoeia) / water uptake: 25° C./80% RH; for form by HT-XRPD after the DVS cycle: sorption-desorption-sorption 40-95-0-45% RH
Method: Analyses were performed on a DVS-1 system from Surface Measurement Systems (London, UK). Weight equilibration per step was set at dm/dt<0.002 for a minimum of 1 hour or a maximum of 6 hours. The sample was subjected to a sorption-desorption-sorption cycle running from 40 to 95 to 0 to 45% RH, at a constant temperature of 25° C. One cycle consisted of 20 steps, those between 0 and 90% RH were taken in 10% RH each. Afterwards the sample was measured by HT-XRPD.
Forms HCl2 and HCl3 were subjected to DVS measurements to determine the hygroscopicity of these two forms. The material initially took up water slowly with increasing relative humidity (RH) up to about 90% RH. The change in mass was approximately 3.3%, corresponding to about 1 molecule of water per molecule of PN6047. […] The material was then gradually dried from 95 to 0% RH in steps of 10% RH. The corresponding mass change upon drying was different than the initial mass increase upon hydration. Finally, from 0 to 40% RH, the water uptake proceeded in the same way as in the preceding dehydration step. […] It is believed that the uptake of the 2 additional molecules of water may have led to a change from form HCl2 to form HCl3.
The material gradually took up water with increasing relative humidity (RH) up to 95% RH. […] The material was then gradually dried from 95 to 0% RH in steps of 10% RH. The corresponding mass change upon drying was approximately the same as the initial mass increase upon hydration. Finally, from 0 to 40% RH, the water uptake proceeded in the same way as the preceding dehydration step.

[5] = Incubation at high humidity or under vacuum, form by XRPD; assay type: physicochemical; conditions: 2 days
Method: To further understand the hygroscopic nature of form HCl2, a sample of the material was incubated at 85% RH at room temperature for 2 days.
A sample of Form HCl3 was further incubated at 50° C./1 mbar for 2 days to determine whether conversion to Form HCl2 would take place.

[6] = Solubility in water at pH 7; assay type: physicochemical
Method: For instance, whereas the free base only sparingly dissolves in water at pH 7 (<1 mg/mL), Forms HCl2 and HCl3 are highly soluble in water at the same pH (>100 mg/mL). The higher solubility of the HCl salt allows continued investigation of the compound at higher concentrations, which is advantageous e.g. in toxicology studies. […] It is expected that the increased bioavailability (and thus the increased exposure) of the HCl salt may lead to an improved efficacy of PN6047 in the treatment of pain and other indications as mentioned herein. Possibly, the increased bioavailability may allow the HCl salt to be administered in substantially lower doses than the free base. The unexpected increase in bioavailability of the HCl salt may also enable the use of sustained release formulations of the compound.

## CN(C)C(=O)c1ccc(C(=C2CCN(Cc3cncs3)CC2)c2cccc(C(N)=O)c2)cc1 [Form HCl2, 4-[(3-carbamoylphenyl)[1-(1,3-thiazol-5-ylmethyl)piperidin-4-ylidene]methyl]-N,N-dimethylbenzamide]
[1]; 25° C./60% RH, 40° C./75% RH and 60° C./38% RH
  time physically stable: ≥ 4 weeks
[1]; 1 week, 25° C./60% RH
  LCMS API: 100 area %
  TGA mass loss: 1.8 wt %
  XRPD: HCl2
[1]; 1 week, 40° C./75% RH
  LCMS API: 100 area %
  TGA mass loss: 1.9 wt %
  XRPD: HCl2
[1]; 1 week, 60° C./38% RH
  LCMS API: 100 area %
  TGA mass loss: 1.9 wt %
  XRPD: HCl2
[1]; 4 weeks, 25° C./60% RH
  LCMS API: 100 area %
  TGA mass loss: 1.5 wt %
  XRPD: HCl2
[1]; 4 weeks, 40° C./75% RH
  LCMS API: 100 area %
  TGA mass loss: 1.6 wt %
  XRPD: HCl2
[1]; 4 weeks, 60° C./38% RH
  LCMS API: 100 area %
  TGA mass loss: 1.9 wt %
  XRPD: HCl2
[1]; incubation time 0
  LCMS API: 100 area %
  TGA mass loss: 1.0 wt %
  XRPD: HCl2
[2]
  time chemically stable in saline: up to 1 week
[2]; 10 mg/mL, 5° C., 3 d
  LCMS API: 99.9 area %
[2]; 10 mg/mL, 5° C., 4 d
  LCMS API: 99.9 area %
[2]; 10 mg/mL, 5° C., 7 d
  LCMS API: 99.9 area %
[2]; 10 mg/mL, 25° C., 0 d
  LCMS API: 99.9 area %
[2]; 10 mg/mL, 25° C., 3 d
  LCMS API: 99.9 area %
[2]; 10 mg/mL, 25° C., 4 d
  LCMS API: 99.9 area %
[2]; 10 mg/mL, 25° C., 7 d
  LCMS API: 99.9 area %
[2]; 10 mg/mL, 40° C., 3 d
  LCMS API: 99.9 area %
[2]; 10 mg/mL, 40° C., 4 d
  LCMS API: 99.9 area %
[2]; 10 mg/mL, 40° C., 7 d
  LCMS API: 99.9 area %
[2]; 100 mg/mL, 5° C., 3 d
  LCMS API: 99.9 area %
[2]; 100 mg/mL, 5° C., 4 d
  LCMS API: 99.9 area %
[2]; 100 mg/mL, 5° C., 7 d
  LCMS API: 99.9 area %
[2]; 100 mg/mL, 25° C., 0 d
  LCMS API: 99.9 area %
[2]; 100 mg/mL, 25° C., 3 d
  LCMS API: 99.9 area %
[2]; 100 mg/mL, 25° C., 4 d
  LCMS API: 99.9 area %
[2]; 100 mg/mL, 25° C., 7 d
  LCMS API: 99.9 area %
[2]; 100 mg/mL, 40° C., 3 d
  LCMS API: 99.9 area %
[2]; 100 mg/mL, 40° C., 4 d
  LCMS API: 99.9 area %
[2]; 100 mg/mL, 40° C., 7 d
  LCMS API: 100.0 area %
[3]; oral 3 mg/kg
  bioavailability: 24%
[3]; oral 10 mg/kg
  bioavailability: 35.5%
[3]; oral 50 mg/kg
  bioavailability: 35% and 34.6%
[4]
  relative humidity at which the form absorbs water and transforms into Form HCl3: > 85 % RH
  relative humidity up to which the form is believed stable: up to 85 % RH
[4]; DVS, 25° C., from 90 to 95% RH
  mass increase: 10.0%
[4]; DVS, 25° C., increasing RH up to about 90% RH
  change in mass: approximately 3.3%
[4]; DVS
  hygroscopicity (classification as per the European Pharmacopoeia): moderate hygroscopicity
  water uptake: approximately 2.2%
[4]; DVS, listed as form HCl2
  hygroscopicity (classification as per the European Pharmacopoeia): moderately hygroscopic
  water uptake: approximately 2.2%
[4]; 25° C., listed as form HCl2
  form by HT-XRPD after the DVS cycle: conversion had taken place from form HCl2 to form HCl3
[5]; 85% RH, room temperature
  form by XRPD after incubation: conversion into form HCl3 had taken place

## CN(C)C(=O)c1ccc(C(=C2CCN(Cc3cncs3)CC2)c2cccc(C(N)=O)c2)cc1 [Form HCl3, 4-[(3-carbamoylphenyl)[1-(1,3-thiazol-5-ylmethyl)piperidin-4-ylidene]methyl]-N,N-dimethylbenzamide]
[4]; DVS, listed as form HCl3
  hygroscopicity (classification as per the European Pharmacopoeia): moderately hygroscopic
  water uptake: approximately 8.0%
[4]; 25° C., listed as form HCl3
  form by HT-XRPD after the DVS cycle: form HCl3 was still present
[5]; 50° C./1 mbar
  form after drying: poorly crystalline phase of Form HCl3; also recorded: less crystalline phase of Form HCl3

## CN(C)C(=O)c1ccc(C(=C2CCN(Cc3cncs3)CC2)c2cccc(C(N)=O)c2)cc1 [Free base, 4-[(3-carbamoylphenyl)[1-(1,3-thiazol-5-ylmethyl)piperidin-4-ylidene]methyl]-N,N-dimethylbenzamide]
[6]
  solubility in water: < 1 mg/mL
[3]; oral 3 mg/kg
  bioavailability: 8%
